# Reference: patent US7943748B2, “Glucitol derivative, prodrug thereof and salt thereof, and therapeutic agent containing the same for diabetes” (Chugai Seiyaku Kabushiki Kaisha, priority 2004, dated 2011)
# pIC50: −log10 of the molar value.
# How the values were obtained:
# human SGLT2 = target: T1, human SGLT2 (Homo sapiens, UniProt P31639); test: Inhibition of methyl-α-D-glucopyranoside intake in human SGLT2 stable expression CHO cells; assay type: cell-based; details: methyl-α-D-(U-14C)glucopyranoside intake, 37° C., 45 minutes
# T1 construct: expressed in transfected cells; host or cells: CHO-K1
# T1 sequence (P31639 1-672): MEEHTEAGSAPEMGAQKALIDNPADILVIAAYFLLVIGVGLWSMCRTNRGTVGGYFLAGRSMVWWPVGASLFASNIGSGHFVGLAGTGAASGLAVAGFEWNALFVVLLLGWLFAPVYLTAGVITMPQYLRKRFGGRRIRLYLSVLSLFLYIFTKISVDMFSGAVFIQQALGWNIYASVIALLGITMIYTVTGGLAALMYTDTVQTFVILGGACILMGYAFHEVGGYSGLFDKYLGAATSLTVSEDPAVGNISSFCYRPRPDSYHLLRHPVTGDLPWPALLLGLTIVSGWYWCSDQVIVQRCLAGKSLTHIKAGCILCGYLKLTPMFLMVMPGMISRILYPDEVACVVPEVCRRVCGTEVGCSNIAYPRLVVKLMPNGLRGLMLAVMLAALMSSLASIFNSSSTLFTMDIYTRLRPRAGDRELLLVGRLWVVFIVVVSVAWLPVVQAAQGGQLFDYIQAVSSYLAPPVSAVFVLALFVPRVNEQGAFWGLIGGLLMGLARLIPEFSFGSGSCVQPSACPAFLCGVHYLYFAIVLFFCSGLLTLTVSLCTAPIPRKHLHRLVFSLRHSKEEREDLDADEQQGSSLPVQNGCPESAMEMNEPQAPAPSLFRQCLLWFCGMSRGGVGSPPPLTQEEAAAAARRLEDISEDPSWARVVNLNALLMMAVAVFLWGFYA
# Procedure: Test for Confirming Action of Inhibiting Human Na^+-Glucose Co-Transporters (SGLT1 and SGLT2)
# (2) Preparation of Human SGLT2 Expression Vector
# PCR was performed by KOD+DNA polymerase by taking a human kidney-derived cDNA library (a product of Clontech) as a template with the use of a synthesized DNA primer to amplify human SGLT2 cDNA. […] From the proliferated E. coli, a plasmid was purified according to the usual way. By taking this plasmid as a template, PCR was performed by KOD+DNA polymerase with the use of a synthetic DNA primer into which restriction enzyme recognition sites had been introduced to amplify human SGLT2 cDNA (a fragment added with Xho I recognition site on the upstream side and a Hind III recognition site on the downstream side). This amplified fragment was subjected to Xho I and Hind III digestion to connect the digested fragments to their recognition sites of the expression vector pcDNA 3.1(−) with the use of the Rapid DNA Ligation kit. The connected expression vector was introduced into E. coli competent cells (DH5α) and proliferated in an ampicillin-containing LB medium to obtain a human SGLT2 expression vector according to the usual way.
# (3) Preparation of Human SGLT1 Stable Expression Cell and Human SGLT2 Stable Expression Cell […]
# [1] = Test for determining blood half-life in rat; assay type: in vivo; details: iv; SD male rat, intravenously administered, dosage 10 mg/kg, plasma, LC-MS/MS, non-compartmental analysis, half-life in the final layer
# Procedure: Test for Determining Blood Half-Life in Rat
# A test compound was intravenously administered to a SD male rat (8-weeks old, Japan SLC) and the blood was collected 2 minutes, 5 minutes, 15 minutes, 30 minutes, 1 hour, 2 hours, 4 hours, 6 hours and 8 hours after administration, respectively. The obtained blood was centrifuged to obtain plasma. The plasma sample (0.01 mL) and water (0.4 mL) were added to a tube added with an internal standard substance of phenyloin (250 ng), and diethyl ether (2 mL) was added thereto and the obtained solution was stirred for five minutes, and then centrifuged for 10 minutes and an organic layer was recovered and subjected to nitrogen dryness, and a mobile phase was added to the obtained solid to dissolve it and the resulting solution was taken as a sample for determination.
# The sample for determination was injected into LC-MS/MS and determined under the following conditions. • Column: ODS (2.0×150 mm) • Mobile Phase Acetonitrile/10 mM ammonium acetate=4/6 (v/v) • Flow Rate: 0.2 mL/min • Amount of Sample Injected: 10 μL • Mass Analysis: ESI (+)
# The plasma concentration obtained by the LC-MS/MS method was subjected to non-compartmental analysis with the use of the WinNonlin standard made by Pharsight Corporation to calculate pharmacokinetic parameters.
SMILES,pIC50 (human SGLT2),half-life [1] [h]
"OC[C@H]1O[C@@H](c2cc(Cc3cc4ccccc4s3)cc3ccccc23)[C@H](O)[C@@H](O)[C@@H]1O [Example 1, (2S,3R,4R,5S,6R)-2-[3-(Benzo[b]thiophen-2-ylmethyl)-naphthalen-1-yl]-6-hydroxymethyl-tetrahydropyran-3,4,5-triol]",7.74,8.21
"Cc1ccc(Cc2cc([C@@H]3O[C@H](CO)[C@@H](O)[C@H](O)[C@H]3O)c3ccccc3c2)s1 [Example 8, (2R,3S,4R,5R,6S)-2-hydroxymethyl-6-[3-(5-methylthiophen-2-ylmethyl)naphthalen-1-yl]tetrahydropyran-3,4,5-triol]",7.74,
